According to US7393952B2, “Solvent free amorphous rapamycin” (Cordis Corporation, priority 2004, dated 2008):

Assay: differential scanning calorimetry (DSC) of amorphous sirolimus
Assay type: physicochemical
Conditions: DSC curve for this sample (FIG. 6); about 3 mg, heating rate 2° C./min, -40 to 200° C., nitrogen flow
Description: In another test, the amorphous sirolimus is analyzed utilizing differential scanning calorimetry (DSC). Essentially, the purpose of this test is to determine the glass transition temperature of the amorphous sirolimus. In this test, approximately 3 mg of amorphous sirolimus is transferred into a standard aluminum TA-Instrument sample pan and covered. The DSC curve is recorded on a TA-Instruments Q1000 MTDSC equipped with a RCS cooling unit. FIG. 6 illustrates a differential scanning calorimetry (DSC) curve of amorphous sirolimus. […] Based on a number of scans, the glass transition temperatures may be in the range from about 92 degrees C. to about 95 degrees C.

For `CO[C@H]1C[C@@H]2CC[C@@H](C)[C@@](O)(O2)C(=O)C(=O)N2CCCC[C@H]2C(=O)O[C@H]([C@H](C)C[C@@H]2CC[C@@H](O)[C@H](OC)C2)CC(=O)[C@H](C)/C=C(\C)[C@@H](O)[C@@H](OC)C(=O)[C@H](C)C[C@H](C)/C=C/C=C/C=C/1C` [amorphous sirolimus, sirolimus (rapamycin)], the glass transition temperature was “about 93 degrees C”.
